Laboratory results taken from US7462615B2, “Inhibitors of cysteine proteases, the pharmaceutical compositions thereof and their therapeutic applications” (Hybrigenics SA, priority 2005, dated 2008).

Assays:
USP5 = target: T1, USP5 (Homo sapiens, UniProt P45974); assay: USP5 Activity Assay; type: biochemical; details: 400 nM Ub-AMC; 300 pM enzyme; pre-incubated 30 minutes at 25° C., 60 minutes at 37° C.; sigmoidal fit; read-out: USP 5 (Inhibition of cysteine protease activities)
T1 sequence (P45974 1-858): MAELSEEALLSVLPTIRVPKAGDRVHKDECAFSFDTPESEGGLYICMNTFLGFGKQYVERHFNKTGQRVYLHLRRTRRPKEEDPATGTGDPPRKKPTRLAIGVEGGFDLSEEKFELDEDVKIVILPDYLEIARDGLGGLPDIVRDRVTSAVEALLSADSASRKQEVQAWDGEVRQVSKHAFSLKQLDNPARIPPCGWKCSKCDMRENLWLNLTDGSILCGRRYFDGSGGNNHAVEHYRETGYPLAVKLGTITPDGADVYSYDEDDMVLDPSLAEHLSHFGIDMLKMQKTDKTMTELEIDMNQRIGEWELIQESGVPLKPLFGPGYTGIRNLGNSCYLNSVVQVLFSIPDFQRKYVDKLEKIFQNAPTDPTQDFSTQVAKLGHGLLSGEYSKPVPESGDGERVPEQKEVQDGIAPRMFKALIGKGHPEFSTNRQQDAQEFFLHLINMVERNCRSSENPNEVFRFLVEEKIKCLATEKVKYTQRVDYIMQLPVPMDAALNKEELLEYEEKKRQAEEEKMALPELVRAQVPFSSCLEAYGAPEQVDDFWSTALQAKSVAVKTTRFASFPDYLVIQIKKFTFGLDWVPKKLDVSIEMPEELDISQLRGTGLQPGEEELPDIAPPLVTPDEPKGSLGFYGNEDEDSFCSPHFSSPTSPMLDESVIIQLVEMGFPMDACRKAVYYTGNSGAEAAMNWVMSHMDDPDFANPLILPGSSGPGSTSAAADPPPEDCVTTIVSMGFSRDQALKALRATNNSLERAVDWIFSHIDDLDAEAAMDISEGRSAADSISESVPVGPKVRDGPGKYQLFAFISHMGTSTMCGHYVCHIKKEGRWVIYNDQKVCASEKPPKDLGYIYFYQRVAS
Method: USP5 was diluted in USP buffer (50 mM Tris HCl; 0.5 mM EDTA; 5 mM DTT; 0.01% Triton X-100; Bovine Serum Albumin 0.05 mg.ml^−1 pH 7.6). Compounds stocks (100 mM) were stored at −20° C. in DMSO.
(§1) Reactions were performed as duplicates in Black LJL 96 well plates (HE microplates; Molecular Devices; 20 μl final reaction volume). The substrate concentration for USP5 was 400 nM Ub-AMC (Boston Biochem). The concentrations of the enzyme (USP5) in specificity assays was 300 pM. The concentrations were determined in order to perform specificity assays under initial velocities at fixed substrate concentration. Compounds were pre-incubated with enzymes for 30 minutes at 25° C. Reactions were initiated by addition of substrate to the plates containing the enzymes (+/− compounds) diluted in assay buffer. Reactions were incubated for 60 minutes at 37° C. Reactions were stopped by adding acetic acid (100 mM final). Readings were performed on a Pherastar Fluorescent Reader (BMG). λ Emission 380 nm; λ Excitation=460 nm. Data (mean values +/− standard deviation) were analyzed as % of control (no compound) and plotted as percentage versus the Log of the compound concentration using GraphPad (Prism). Data were fitted to a sigmoidal model (variable slope).

USP7 = target: T2, USP7 (Homo sapiens, UniProt Q93009); assay: USP7 Activity Assay; type: biochemical; details: 400 nM Ub-AMC; 152 pM enzyme; pre-incubated 30 minutes at 25° C., 60 minutes at 37° C.; sigmoidal fit; read-out: USP 7 (Inhibition of cysteine protease activities)
T2 construct: His tag (from vector pFastBac-HT) (N); made in house; host or cells: Sf9 or High Five insect cells (baculovirus)
T2 sequence (Q93009 whole entry): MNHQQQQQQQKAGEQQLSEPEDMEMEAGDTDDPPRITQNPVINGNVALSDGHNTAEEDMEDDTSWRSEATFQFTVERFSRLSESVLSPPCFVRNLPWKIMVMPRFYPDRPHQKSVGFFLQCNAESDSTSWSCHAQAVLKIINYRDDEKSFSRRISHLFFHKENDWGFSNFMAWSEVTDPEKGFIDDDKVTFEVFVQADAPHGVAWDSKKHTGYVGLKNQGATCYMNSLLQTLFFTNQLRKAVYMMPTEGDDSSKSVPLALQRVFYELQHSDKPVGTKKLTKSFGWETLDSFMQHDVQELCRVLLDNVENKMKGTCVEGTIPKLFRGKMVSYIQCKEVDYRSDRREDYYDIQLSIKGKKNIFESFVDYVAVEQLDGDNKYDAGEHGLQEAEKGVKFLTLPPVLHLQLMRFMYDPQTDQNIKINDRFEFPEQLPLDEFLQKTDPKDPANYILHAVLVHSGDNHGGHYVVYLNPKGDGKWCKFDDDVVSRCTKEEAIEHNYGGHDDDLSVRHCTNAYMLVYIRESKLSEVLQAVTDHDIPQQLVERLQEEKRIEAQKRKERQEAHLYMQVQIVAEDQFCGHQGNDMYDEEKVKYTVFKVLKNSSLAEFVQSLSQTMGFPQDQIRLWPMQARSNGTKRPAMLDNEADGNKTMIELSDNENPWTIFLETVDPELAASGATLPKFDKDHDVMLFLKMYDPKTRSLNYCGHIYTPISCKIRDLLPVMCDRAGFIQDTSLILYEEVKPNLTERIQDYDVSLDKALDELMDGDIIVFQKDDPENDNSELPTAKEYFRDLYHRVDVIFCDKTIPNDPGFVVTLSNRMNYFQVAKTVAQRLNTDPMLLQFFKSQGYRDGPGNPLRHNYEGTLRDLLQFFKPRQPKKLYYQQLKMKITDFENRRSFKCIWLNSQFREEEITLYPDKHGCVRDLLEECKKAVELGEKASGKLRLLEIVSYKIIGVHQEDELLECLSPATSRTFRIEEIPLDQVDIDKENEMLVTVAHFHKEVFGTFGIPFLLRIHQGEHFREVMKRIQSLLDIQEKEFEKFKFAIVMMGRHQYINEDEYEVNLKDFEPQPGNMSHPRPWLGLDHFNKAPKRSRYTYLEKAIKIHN
Excerpt: The cDNA encoding USP7 was obtained by PCR amplification from placenta mRNA. USP7 cDNA was subcloned by PCR into a baculovirus expression vector (pFastBac-HT; Invitrogen). A cDNA encoding a mutated USP7 was generated by mutagenic PCR. The corresponding protein encodes a cysteine to alanine substitution at residue 223. The sequences were ascertained by sequencing of the entire open reading frame. Bacmids encoding USP7 were generated following DH10bac transposition. The corresponding bacmids were transfected into insect cells (Sf9). Viruses were recovered from culture supernatant and amplified twice. Insect cells (Sf9 or High Five; Invitrogen) were infected for 72 hours. Total cell lysates were harvested and lyzed in lysis buffer (Tris HCl 50 mM pH7.6; 0.75% NP40; 500 mM NaCl; 10% glycerol; 1 mM DTT; 10 mM imidazole; Protease Inhibitor. Cocktail; AEBSF
20 μg.ml^−1; Aprotinin 10 μg.ml^−1). Proteins were affinity purified on metal affinity resins (Talon Metal affinity resin; BD Biosciences). Bound materials were extensively washed in wash buffer (50 mM Sodium Phosphate pH7.0; 300 mM NaCl; 10 mM imidazole; 0.5% Triton X-100; 10% glycerol) and eluted from the resin in 250 mM imidazole-containing wash buffer. Proteins were dialyzed in dialysis buffer (Tris HCl pH 7.6 20 mM; NaCl 200 mM; DTT 1 mM; EDTA 1 mM; 10% Glycerol). Proteins purifications were analyzed on 4-12% NuPAGE (Invitrogen).
USP7 was diluted in USP buffer (50 mM Tris HCl; 0.5 mM EDTA; 5 mM DTT; 0.01% Triton X-100; Bovine Serum Albumin 0.05 mg.ml^−1 pH7.6). Compounds stocks (100 mM) were stored at −20° C. in DMSO. Compounds were tested at the following final concentrations: 100 μM; 33.3 μM; 11.1 μM; 3.7 μM; 1.23 μM; 412 nM; 137 nM; 45.7 nM; 15.2 nM; 5 nM.
as §1, with “USP7” for “USP5”, “Ub-AMC (Chem. Biol., 2003, 10, p. 837-846)” for “Ub-AMC”, “(USP7)” for “(USP5)”, “152” for “300”, “(+/−compounds)” for “(+/− compounds)”, “+/−standard” for “+/− standard”

Row | Compound | IC50 (USP5) | IC50 (USP7)
1 | 6-(7)-Chloro-1-methyl-2,3,4,10,10a-pentaaza-cyclopenta[b]fluoren-9-one [Example 3/A] | 1540 nM | 2800 nM
2 | Cc1nnc2nc3c(nn12)C(=O)c1ccccc1-3 [Example 1b/A, 1-Methyl-2,3,4,10,10a-pentaaza-cyclopenta[b]fluoren-9-one] | 7600 nM | 16700 nM
3 | Cc1nnc2nc3c(nn12)-c1ccccc1C3=O [Example 1b/B, 3-Methyl-1,2,3a,4,10-pentaaza-cyclopenta[b]fluoren-9-one] |  | 550 nM
4 | Nc1nnc2nc3c(nn12)C(=O)c1ccccc1-3 [Example 1c/A, 1-Amino-2,3,4,10,10a-pentaaza-cyclopenta[b]fluoren-9-one] | 2800 nM | 15300 nM
5 | Nc1nnc2nc3c(nn12)-c1ccccc1C3=O [Example 1c/B, 3-Amino-1,2,3a,4,10-pentaaza-cyclopenta[b]fluoren-9-one] |  | 700 nM
6 | CCc1nnc2nc3c(nn12)C(=O)c1ccccc1-3 [Example 1d/A, 1-Ethyl-2,3,4,10,10a-pentaaza-cyclopenta[b]fluoren-9-one] | 3230 nM | 16500 nM
7 | CCc1nnc2nc3c(nn12)-c1ccccc1C3=O [Example 1d/B, 3-Ethyl-1,2,3a, 4,10-pentaaza-cyclopenta[b]fluoran-9-one] |  | 225 nM
8 | CCCc1nnc2nc3c(nn12)C(=O)c1ccccc1-3 [Example 1e/A, 1-Propyl-2,3,4,10,10a-pentaaza-cyclopenta[b]fluoren-9-one] | > 100000 nM | 
9 | CCCc1nnc2nc3c(nn12)-c1ccccc1C3=O [Example 1e/B, 3-Propyl-1,2,3a, 4,10-pentaaza-cyclopenta[b]fluoren-9-one] |  | 662 nM
10 | CCCCc1nnc2nc3c(nn12)C(=O)c1ccccc1-3 [Example 1f/A, 1-Butyl-2,3,4,10,10a-pentaaza-cyclopenta[b]fluoren-9-one] | 3900 nM | 23000 nM
11 | CCCCc1nnc2nc3c(nn12)-c1ccccc1C3=O [Example 1f/B, 3-Butyl-1,2,3a,4,10-pentaaza-cyclopenta[b]fluoren-9-one] | 237 nM | 604 nM
12 | CC(C)Cc1nnc2nc3c(nn12)C(=O)c1ccccc1-3 [Example 1g/A, 1-Isobutyl-2,3,4,10,10a-pentaaza-cyclopenta[b]fluoren-9-one] | > 100000 nM | 
13 | CC(C)Cc1nnc2nc3c(nn12)-c1ccccc1C3=O [Example 1g/B, 3-Isobutyl-1,2,3a,4,10-pentaaza-cyclopenta[b]fluoren-9-one] |  | 789 nM
14 | O=C1c2ccccc2-c2nc3nnc(CO)n3nc21 [Example 1h/A, 1-Hydroxymethyl-2,3,4,10,10a-pentaaza-cyclopenta[b]fluoren-9-one] | 2500 nM | 9700 nM
15 | O=C1c2ccccc2-c2nn3c(CO)nnc3nc21 [Example 1h/B] |  | 1610 nM
16 | COCc1nnc2nc3c(nn12)C(=O)c1ccccc1-3 [Example 1i/A, 1-Methoxymethyl-2,3,4,10,10a-pentaaza-cyclopenta[b]fluoren-9-one] | > 100000 nM | 
17 | COCc1nnc2nc3c(nn12)-c1ccccc1C3=O [Example 1i/B, 3-Methoxymethyl-1,2,3a, 4,10-pentaaza-cyclopenta[b]fluoren-9-one] | 487 nM | 461 nM
18 | O=C1c2ccccc2-c2nn3c(C4CC4)nnc3nc21 [Example 1j/B, 3-Cyclopropyl-1,2,3a,4,10-pentaaza-cyclopenta[b]fluoren-9-one] |  | 207 nM
19 | O=C1c2ccccc2-c2nc3nnc(Cc4ccccc4)n3nc21 [Example 1k/A, 1-Benzyl-2,3,4,10,10a-pentaaza-cyclopenta[b]fluoren-9-one] |  | 3300 nM
20 | O=C1c2ccccc2-c2nn3c(Cc4ccccc4)nnc3nc21 [Example 1k/B, 3-Benzyl-1,2,3a,4,10-pentaaza-cyclopenta[b]fluoren-9-one] |  | 425 nM
21 | Cc1nnc2nc3c(nn12)-c1ccc(Cl)cc1C3=O [Example 3/B, 7-Chloro-3-methyl-1,2,3a, 4,10-pentaaza-cyclopenta[b]fluoren-9-one] | 260 nM | 522 nM
22 | Cn1nc2nc3c(nc2n1)-c1ccccc1C3=O [Example 4a, 2-Methyl-2H-1,2,3,4,10-pentaaza-cyclopenta[b]fluoren-9-one] | 23000 nM | 51000 nM
